How the values were obtained:
Format in all cases: in vivo
Brassica kaber = assay: Glasshouse experiment 3, % inhibition of growth (fresh weight, 19 days); details: for % inhibition of growth Brassica kaber 2-3 leaves: Compound 126 0 g/ha; for ED₉₀ Brassica kaber 2-3 leaves: applied alone
Method: (§1) A series of experiments was carried out to determine the nature of the biological interaction between bromoxynil and five compounds of general formula I on a range of weed species. The 3-benzoyl-piperidine-2,4-dione derivatives were compounds 1, 74, 99, 110 and 126. […] The growth stages of the plants at spraying are also presented with the results. Agricultural surfactant (nonyl phenol ethylene oxide condensate containing 9 moles ethylene oxide marketed as 'Agral') was added to all spray dilutions to give 0.2% v/v concentration.
(§2) After spraying the pots were arranged in randomised blocks in a glasshouse and watered as necessary. After 19 days the fresh weight of vegetation in each pot was determined. The mean fresh weights were used to calculate the percentage inhibition of each species thus [formula]
(§3) E = X + Y […] where E, X and Y are percentage inhibition of growth.
(§4) The ED values were then used to plot an isobole for each species according to the method of P.M.L. Tammes op cit. The results of percentage inhibition of growth, the ED values calculated from them and the calculated expected values are given in Tables 1-8.

Amaranthus retroflexus = assay: as above; details: for % inhibition of growth Amaranthus retroflexus 2-4 leaves: Compound 126 0 g/ha; for ED₉₀ Amaranthus retroflexus 2-4 leaves: applied alone
Method: as §1, §2, §3, §4

Abutilon theophrasti = assay: as above; details: for % inhibition of growth Abutilon theophrasti 1-2 leaves: Compound 126 0 g/ha; for ED₅₀ Abutilon theophrasti 1-2 leaves: applied alone
Method: as §1, §2, §3, §4

maize var. Irla = assay: Glasshouse experiment 4, percentage phytotoxicity on crop after 11 days; details: for % crop phytotoxicity Maize (3-4 leaves): Bromoxynil 0 g/ha; for ED₂₀ crop phytotoxicity Maize (3-4 leaves): applied alone
Method: Agricultural surfactant ('Agral') was added to the spray dilutions to give 0.2%v/v concentration.
After spraying the pots were arranged in randomised blocks in a glasshouse and water as necessary. After 11 days the plants were assessed for percentage phytotoxicity (reduction in green area compared with unsprayed plants (0 = no effect 100 = complete destruction).
E = X + Y […] where E, X and Y are percentage phytotoxicity.
The ED values were then used to plot an isobole for each mixture according to the method of P.M.L. Tammes op cit.

Eleusine indica = assay: Glasshouse experiment 3, % inhibition of growth (fresh weight, 19 days)
Method: as §1, §2, §3, §4

Digitaria sanguinalis = assay: as above; details: for ED₅₀: 3-4 leaves; for ED₉₀: 3 leaves
Method: as §1, §2, §3, §4

[1] = system: Digitaria horizontalis (DIGHO); assay: Field experiment, post-emergence spray, % control of grass weed; details: 29 days after application
Method: (§5) The following control figures were recorded on the grass weeds Brachiaria plantaginea (BRAPL), Digitaria horizontalis (DIGHO) and Eleusine indica (ELEIN) 29 days after application.

Eleusine indica (ELEIN) = assay: as above; details: 29 days after application
Method: as §5

[2] = system: Brachiaria plantaginea (BRAPL); assay: as above; details: 29 days after application
Method: as §5

Echinochloa crus-galli [3] = assay: Glasshouse experiment 3, % inhibition of growth (fresh weight, 19 days); details: 3 leaves
Method: as §1, §2, §3, §4

Chenopodium album = assay: as above; details: 2-6 leaves
Method: as §1, §2, §3, §4

Solanum nigrum = assay: as above; details: 2-3 leaves
Method: as §1, §2, §3, §4

Echinochloa crus-galli [4] = assay: Glasshouse experiment 2, percentage phytotoxicity after 19 days
Method: Agricultural surfactant-nonylphenol ethylene oxide condensate containing 9 moles ethylene oxide was added to all spray dilutions to give 0.2% v/v concentration.
After spraying, the pots were arranged in randomised blocks in a glasshouse, watered as necessary, and assessed after 19 days for percentage phytotoxicity (reduction in green area compared with unsprayed plants) (0 = no effect; 100 = complete destruction).
The results were then used to plot an isobole with a "one-sided effect" according to the methods of P.M.L. Tammes op.cit.

[5] = Bromoxynil alone, 2 leaves, Table 6
[6] = Bromoxynil alone, 2 leaves, Table 7
[7] = Bromoxynil alone 2,4,8,16,31 g/ha
[8] = Mutarda arvensis, read-out: % inhibition of growth Brassica kaber 2-3 leaves
[9] = Amaranthus retroflexus, read-out: % inhibition of growth Amaranthus retroflexus 2-4 leaves
[10] = Abutilon theophrasti, read-out: % inhibition of growth Abutilon theophrasti 1-2 leaves

Compound: CC1(C)CC(=O)C(C(=O)c2ccc(C(F)(F)F)cc2[N+](=O)[O-])C(=O)N1 (stereo not shown) [Compound 99, 3-(2-nitro-4-trifluoromethylbenzoyl)-6,6-dimethylpiperidine-2,4-dione]
- ED₉₀ (Brassica kaber; Compound 99 alone, 2 leaves): ED₉₀(g/ha) 54.9
- ED₉₀ (Amaranthus retroflexus; Compound 99 alone, 2 leaves): ED₉₀(g/ha) 16.8
- ED₉₀ (Abutilon theophrasti; Compound 99 alone, 1-2 leaves): ED₉₀(g/ha) 23.6
- % crop phytotoxicity Maize (3-4 leaves) (maize var. Irla; Compound (74 or 99) 63 g/ha): 0%
- % crop phytotoxicity Maize (3-4 leaves) (maize var. Irla; Compound (74 or 99) 125 g/ha): 0%
- % crop phytotoxicity Maize (3-4 leaves) (maize var. Irla; Compound (74 or 99) 250 g/ha): 0%
- % crop phytotoxicity Maize (3-4 leaves) (maize var. Irla; Compound (74 or 99) 500 g/ha): 4%
- % crop phytotoxicity Maize (3-4 leaves) (maize var. Irla; Compound (74 or 99) 1000 g/ha): 50%
- % crop phytotoxicity Maize (3-4 leaves) (maize var. Irla; Compound (74 or 99) 2000 g/ha): 51%
- ED₂₀ crop phytotoxicity Maize (3-4 leaves) (maize var. Irla): ED₂₀(g/ha) 797

Compound: CC1(C)CC(=O)C(C(=O)c2ccc(Cl)cc2[N+](=O)[O-])C(=O)N1 (stereo not shown) [Compound 1, 3-(4-chloro-2-nitrobenzoyl)-6,6-dimethylpiperidine-2,4-dione]
- ED₉₀ (Brassica kaber; Compound 1 alone, 2-3 leaves): ED₉₀(g/ha) 58.1
- ED₉₀ (Amaranthus retroflexus; Compound 1 alone, 2 leaves): ED₉₀(g/ha) 21.6
- ED₅₀ (Abutilon theophrasti; Compound 1 alone, 3 leaves): ED₅₀(g/ha) 21.1
- ED₉₀ (Eleusine indica; Compound 1 alone, 3-4 leaves): ED₉₀ (g/ha) 66.8
- ED₅₀ (Digitaria sanguinalis; Compound 1 alone): ED₅₀ (g/ha) 21.6
- % control observed ([1]; Compound 1 @ 250g/ha): 70%
- % control observed ([1]; Compound 1 @ 500g/ha): 80%
- % control observed (Eleusine indica (ELEIN); Compound 1 @ 250g/ha): 70%
- % control observed (Eleusine indica (ELEIN); Compound 1 @ 500g/ha): 80%
- % control observed ([2]; Compound 1 @ 250g/ha): 60%
- % control observed ([2]; Compound 1 @ 500g/ha): 80%

Compound: CS(=O)(=O)c1ccc(C(=O)C2C(=O)CCNC2=O)c([N+](=O)[O-])c1 (stereo not shown) [Compound 110, 3-(4-methylsulphonyl-2-nitrobenzoyl)piperidine-2,4-dione]
- ED₉₀ (Brassica kaber; Compound 110 alone, 2 leaves): ED₉₀(g/ha) 13.6
- % inhibition of growth (Amaranthus retroflexus; Compound 110 alone 1,2,4,8,16,31,63 g/ha, 2 leaves): 100%
- ED₉₀ (Amaranthus retroflexus; Compound 110 alone, 2 leaves): ED₉₀(g/ha) 12.6
- ED₅₀ (Abutilon theophrasti; Compound 110 alone, 1-2 leaves): ED₅₀(g/ha) 22.3

Compound: O=C1CCNC(=O)C1C(=O)c1ccc(C(F)(F)F)cc1[N+](=O)[O-] (stereo not shown) [Compound 74, 3-(2-nitro-4-trifluoromethylbenzoyl)piperidine-2,4-dione]
- ED₉₀ (Amaranthus retroflexus; Compound 74 alone, 2 leaves): ED₉₀(g/ha) 22.1
- ED₉₀ (Abutilon theophrasti; Compound 74 alone, 1-2 leaves): ED₉₀(g/ha) 125.6
- ED₉₀ (Echinochloa crus-galli [3]; Compound 74 alone): ED₉₀(g/ha) 168.6
- ED₉₀ (Eleusine indica; Compound 74 alone, 3 leaves): ED₉₀(g/ha) 260.4
- ED₉₀ (Chenopodium album; Compound 74 alone): ED₉₀(g/ha) 3.67
- ED₉₀ (Solanum nigrum; Compound 74 alone): ED₉₀(g/ha) 21.45
- ED₉₀ (Digitaria sanguinalis; Compound 74 alone): ED₉₀(g/ha) 180.4
- % crop phytotoxicity Maize (3-4 leaves) (maize var. Irla; Compound (74 or 99) 63 g/ha): 0%
- % crop phytotoxicity Maize (3-4 leaves) (maize var. Irla; Compound (74 or 99) 125 g/ha): 0%
- % crop phytotoxicity Maize (3-4 leaves) (maize var. Irla; Compound (74 or 99) 250 g/ha): 3%
- % crop phytotoxicity Maize (3-4 leaves) (maize var. Irla; Compound (74 or 99) 500 g/ha): 6%
- % crop phytotoxicity Maize (3-4 leaves) (maize var. Irla; Compound (74 or 99) 1000 g/ha): 17%
- % crop phytotoxicity Maize (3-4 leaves) (maize var. Irla; Compound (74 or 99) 2000 g/ha): 63%
- ED₂₀ crop phytotoxicity Maize (3-4 leaves) (maize var. Irla): ED₂₀(g/ha) 780
- ED₉₀ (Echinochloa crus-galli [4]; Compound 74 alone, dose giving 90% phytotoxicity): 82 g/ha

Compound: N#Cc1cc(Br)c(O)c(Br)c1 [Bromoxynil, 3,5-dibromo-4-hydroxybenzonitrile]
- ED₉₀ (Brassica kaber; Bromoxynil alone, 2-3 leaves, Table 1): ED₉₀(g/ha) 67.0
- ED₉₀ (Brassica kaber; [5]): ED₉₀(g/ha) 42.7
- ED₉₀ (Brassica kaber; [6]): ED₉₀(g/ha) 63.9
- % inhibition of growth Brassica kaber 2-3 leaves (Brassica kaber; Bromoxynil 18 g/ha): 30%
- % inhibition of growth Brassica kaber 2-3 leaves (Brassica kaber; Bromoxynil 35 g/ha): 55%
- % inhibition of growth Brassica kaber 2-3 leaves (Brassica kaber; Bromoxynil 70 g/ha): 82%
- % inhibition of growth Brassica kaber 2-3 leaves (Brassica kaber; Bromoxynil 140 g/ha): 97%
- % inhibition of growth Brassica kaber 2-3 leaves (Brassica kaber; Bromoxynil 280 g/ha): 98%
- ED₉₀ Brassica kaber 2-3 leaves (Brassica kaber): ED₉₀(g/ha) 102.4
- ED₉₀ (Amaranthus retroflexus; Bromoxynil alone, 2 leaves, Table 1): ED₉₀(g/ha) 120.3
- ED₉₀ (Amaranthus retroflexus; Bromoxynil alone, 2 leaves, Table 5): ED₉₀(g/ha) 142.8
- ED₉₀ (Amaranthus retroflexus; [5]): ED₉₀(g/ha) 142.9
- ED₉₀ (Amaranthus retroflexus; [6]): ED₉₀(g/ha) 246.2
- % inhibition of growth Amaranthus retroflexus 2-4 leaves (Amaranthus retroflexus; Bromoxynil 18 g/ha): 0%
- % inhibition of growth Amaranthus retroflexus 2-4 leaves (Amaranthus retroflexus; Bromoxynil 35 g/ha): 4%
- % inhibition of growth Amaranthus retroflexus 2-4 leaves (Amaranthus retroflexus; Bromoxynil 70 g/ha): 8%
- % inhibition of growth Amaranthus retroflexus 2-4 leaves (Amaranthus retroflexus; Bromoxynil 140 g/ha): 84%
- % inhibition of growth Amaranthus retroflexus 2-4 leaves (Amaranthus retroflexus; Bromoxynil 280 g/ha): 90%
- ED₉₀ Amaranthus retroflexus 2-4 leaves (Amaranthus retroflexus): ED₉₀(g/ha) 233.3
- ED₉₀ (Abutilon theophrasti; Bromoxynil alone, 1-2 leaves, Table 5): ED₉₀(g/ha) 119.9
- ED₉₀ (Abutilon theophrasti; Bromoxynil alone, 1-2 leaves, Table 6): ED₉₀(g/ha) 129.6
- ED₅₀ (Abutilon theophrasti; Bromoxynil alone, 1-2 leaves, Table 7): ED₅₀(g/ha) 78.6
- ED₅₀ (Abutilon theophrasti; Bromoxynil alone, 3 leaves, Table 1): ED₅₀(g/ha) 106.3
- % inhibition of growth Abutilon theophrasti 1-2 leaves (Abutilon theophrasti; Bromoxynil 18 g/ha): 0%
- % inhibition of growth Abutilon theophrasti 1-2 leaves (Abutilon theophrasti; Bromoxynil 35 g/ha): 13%
- % inhibition of growth Abutilon theophrasti 1-2 leaves (Abutilon theophrasti; Bromoxynil 70 g/ha): 44%
- % inhibition of growth Abutilon theophrasti 1-2 leaves (Abutilon theophrasti; Bromoxynil 140 g/ha): 96%
- % inhibition of growth Abutilon theophrasti 1-2 leaves (Abutilon theophrasti; Bromoxynil 280 g/ha): 99%
- ED₅₀ Abutilon theophrasti 1-2 leaves (Abutilon theophrasti): ED₅₀(g/ha) 135.7
- ED₉₀ (Echinochloa crus-galli [3]; Bromoxynil alone, Table 3): ED₉₀(g/ha) ∞
- ED₉₀ (Eleusine indica; Bromoxynil alone, 3-4 leaves, Table 2): ED₉₀ (g/ha) ∞
- ED₉₀ (Eleusine indica; Bromoxynil alone, 3 leaves, Table 3): ED₉₀(g/ha) ∞
- % inhibition of growth (Chenopodium album; [7]): 21%
- ED₉₀ (Chenopodium album; Bromoxynil alone): ED₉₀(g/ha) 69.34
- % inhibition of growth (Solanum nigrum; [7]): 91%
- ED₉₀ (Solanum nigrum; Bromoxynil alone): ED₉₀(g/ha) 21.27
- ED₅₀ (Digitaria sanguinalis; Bromoxynil alone, Table 2): ED₅₀ (g/ha) ∞
- ED₉₀ (Digitaria sanguinalis; Bromoxynil alone, Table 3): ED₉₀(g/ha) ∞
- % control observed ([1]; Bromoxynil 250g/ha): 0%
- % control observed (Eleusine indica (ELEIN); Bromoxynil 250g/ha): 0%
- % control observed ([2]; Bromoxynil 250g/ha): 0%
- activity on Echinochloa crus-galli (Echinochloa crus-galli [4]; applied alone): no activity

Compound: CS(=O)(=O)c1ccc(C(=O)C2C(=O)CCNC2=O)c(Cl)c1 (stereo not shown) [Compound 126, 3-(2-chloro-4-methylsulphonylbenzoyl)piperidine-2,4-dione]
- inhibition at 1 g/ha (Brassica kaber; [8]): 0%
- inhibition at 2 g/ha (Brassica kaber; [8]): 0%
- inhibition at 4 g/ha (Brassica kaber; [8]): 0%
- inhibition at 8 g/ha (Brassica kaber; [8]): 17%
- inhibition at 16 g/ha (Brassica kaber; [8]): 26%
- inhibition at 31 g/ha (Brassica kaber; [8]): 48%
- inhibition at 63 g/ha (Brassica kaber; [8]): 80%
- ED₉₀ Brassica kaber 2-3 leaves (Brassica kaber): ED₉₀(g/ha) 90.6
- inhibition at 1 g/ha (Amaranthus retroflexus; [9]): 0%
- inhibition at 2 g/ha (Amaranthus retroflexus; [9]): 50%
- inhibition at 4 g/ha (Amaranthus retroflexus; [9]): 91%
- inhibition at 8 g/ha (Amaranthus retroflexus; [9]): 91%
- inhibition at 16 g/ha (Amaranthus retroflexus; [9]): 99%
- inhibition at 31 g/ha (Amaranthus retroflexus; [9]): 100%
- inhibition at 63 g/ha (Amaranthus retroflexus; [9]): 100%
- ED₉₀ Amaranthus retroflexus 2-4 leaves (Amaranthus retroflexus): ED₉₀(g/ha) 7.6
- inhibition at 1 g/ha (Abutilon theophrasti; [10]): 0%
- inhibition at 2 g/ha (Abutilon theophrasti; [10]): 38%
- inhibition at 4 g/ha (Abutilon theophrasti; [10]): 56%
- inhibition at 8 g/ha (Abutilon theophrasti; [10]): 68%
- inhibition at 16 g/ha (Abutilon theophrasti; [10]): 88%
- inhibition at 31 g/ha (Abutilon theophrasti; [10]): 94%
- inhibition at 63 g/ha (Abutilon theophrasti; [10]): 96%
- ED₅₀ Abutilon theophrasti 1-2 leaves (Abutilon theophrasti): ED₅₀(g/ha) 20.1

Reference: EP0354046A2 (MAY & BAKER LIMITED, priority 1988, dated 1990)
